{"source": "patent US12540161B2", "about": "“Linkers” (BicycleTx Limited, priority 2020, dated 2026)", "key": {"[1]": {"molecular_target": "Cathepsin B (Homo sapiens, UniProt P07858)", "assay": "Cathepsin B (CatB) cleavage assay", "type": "biochemical", "conditions": "BTCs"}, "[2]": {"assay": "Plasma stability analysis, mouse plasma", "conditions": "plasma, BTCs"}, "[3]": {"assay": "in vitro", "conditions": "mouse, plasma"}, "[4]": {"assay": "in vitro", "conditions": "cynomolgus monkey, plasma"}, "[5]": {"test_system": "HT1080 xenograft", "assay": "In vivo efficacy study in the HT1080 xenograft model in BALB/c nude mice (Example 6)", "conditions": "for Tumor volume, day 0 / Tumor volume, day 2 / Tumor volume, day 4 / Tumor volume, day 6 / Tumor volume, day 9 / T/C (%) / TGI (%) / Tumor volume, day 11: iv, qw; for Tumor volume, day 0: day 0 after the start of treatment; for Tumor volume, day 0 / Tumor volume, day 2 / Tumor volume, day 4 / Tumor volume, day 6 / Tumor volume, day 9 / Tumor volume, day 11: mean ± SEM; for T/C (%) / TGI (%) / Tumor volume, day 11: day 11", "protocol": "• Species: Mus Musculus • Strain: BALB/c nude • Age: 6-8 weeks • Sex: female • Body weight: 18-22 g • Number of animals: 35 mice plus spare • Animal supplier: Shanghai Lingchang Biotechnology Experimental Animal Co., LTD. Housing Condition • The mice were kept in individual ventilation cages at constant temperature and humidity with 5 animals in each cage. • Temperature: 20˜26° C. • Humidity 40-70%. • Cages: Made of polycarbonate. The size is 375 mm×215 mm×180 mm.\nThe HT1080 cells were maintained in EMEM medium supplemented with 10% heat inactivated fetal bovine serum at 37° C. in an atmosphere of 5% CO2 in air. The tumor cells were routinely sub-cultured twice weekly. The cells growing in an exponential growth phase were harvested and counted for tumor inoculation.\nEach mouse was inoculated subcutaneously at the right flank with HT1080 tumor cells (5×10^6) in 0.2 ml of PBS for tumor development. Animals were randomized when the average tumor volume reached 320 mm^3 for efficacy study. The test article administration and the animal numbers in each group were shown in the experimental design table.\nAll the procedures related to animal handling, care and the treatment in the study were performed according to the guidelines approved by the Institutional Animal Care and Use Committee (IACUC) of WuXi AppTec, following the guidance of the Association for Assessment and Accreditation of Laboratory Animal Care (AAALAC). At the time of routine monitoring, the animals were checked for any effects of tumor growth and treatments on normal behavior such as mobility, food and water consumption (by observation only), body weight gain/loss, eye/hair matting and any other abnormal effect as stated in the protocol. Death and observed clinical signs were recorded on the basis of the numbers of animals within each subset.\nThe major endpoint was to see if the tumor growth could be delayed or mice could be cured. Tumor volume was measured three times weekly in two dimensions using a caliper, and the volume was expressed in mm^3 using the formula: V=0.5 a×b^2 where a and b are the long and short diameters of the tumor, respectively. The tumor size was then used for calculations of T/C value. The T/C value (in percent) is an indication of antitumor effectiveness; T and C are the mean volumes of the treated and control groups, respectively, on a given day.\nTGI was calculated for each group using the formula: TGI (%)=[1−(Ti−T0)/(Vi−Vo)]×100; Ti is the average tumor volume of a treatment group on a given day, T0 is the average tumor volume of the treatment group on the day of treatment start, Vi is the average tumor volume of the vehicle control group on the same day with Ti, and V0 is the average tumor volume of the vehicle group on the day of treatment start.\nSummary statistics, including mean and the standard error of the mean (SEM), were provided for the tumor volume of each group at each time point.\nStatistical analysis of difference in tumor volume among the groups was conducted on the data obtained at the best therapeutic time point after the final dose.\nA one-way ANOVA was performed to compare tumor volume among groups, and when a significant F-statistics (a ratio of treatment variance to the error variance) was obtained, comparisons between groups were carried out with Games-Howell test. A two-tailed T test was performed to compare tumor volume between two groups. All data were analyzed using GraphPad 5.0. P<0.05 was considered to be statistically significant."}, "[6]": {"conditions": "rat"}, "[7]": {"conditions": "7 animals of group 5 and 6 treated with BCY10984 45 μM, average starting tumor size 1291 mm^3"}}, "note": "Several values for one entry are separate records, joined by “and”; a condition that tells them apart may be missing. Equal entries are not always repeated.", "data": [{"smiles": "CC[C@H](C)[C@@H]([C@@H](CC(=O)N1CCC[C@H]1[C@H](OC)[C@@H](C)C(=O)N[C@H](C)[C@@H](O)c1ccccc1)OC)N(C)C(=O)[C@@H](NC(=O)[C@H](C(C)C)N(C)C(=O)OCc1ccc(NC(=O)[C@H](CCCNC(N)=O)NC(=O)[C@H](Cc2cccc3ccccc23)NC(=O)[C@H](CCC(=O)O)NC(=O)Cn2cc(CCC(=O)NCCC(=O)N(C)CC(=O)N(C)CC(=O)N(C)CC(=O)N(C)CC(=O)N(C)CC(=O)N(C)CC(=O)N(C)CC(=O)N(C)CC(=O)N(C)CC(=O)N(C)CC(=O)N[C@@H](C)C(=O)N[C@H]3CN(C)Cc4cc5cc(c4)CN(C)C[C@@H](C(N)=O)NC(=O)[C@H](C(C)(C)C)NC(=O)[C@H](CC(=O)O)NC(=O)[C@H](Cc4ccc(O)cc4)NC(=O)[C@H](Cc4ccccc4)NC(=O)[C@H](CC(=O)O)NC(=O)[C@H](CCC(=O)O)NC(=O)[C@H](CSC5)NC(=O)[C@@H](C)NC(=O)[C@H](Cc4cccc5ccccc45)NC(=O)[C@H](CCC(=O)O)NC(=O)[C@H](CC(N)=O)NC(=O)[C@@H](C)NC3=O)nn2)cc1)C(C)C", "note": "[BCY10984, MMAE-PAB-(Cit-1Nal-Glu)-BCY3900]", "values": [{"measurement": "% Parent remaining after incubation with CatB, 0 h", "setting": "[1]; 0 h", "result": 100, "unit": "%"}, {"measurement": "% Parent remaining after incubation with CatB, 1 h", "setting": "[1]; 1 h", "result": 94.498, "unit": "%"}, {"measurement": "% Parent remaining after incubation with CatB, 2 h", "setting": "[1]; 2 h", "result": 83.5, "unit": "%"}, {"measurement": "% Parent remaining after incubation with CatB, 4 h", "setting": "[1]; 4 h", "result": 39.2, "unit": "%"}, {"measurement": "% Parent remaining after incubation with CatB, 6 h", "setting": "[1]; 6 h", "result": 33.4, "unit": "%"}, {"measurement": "% Parent remaining after incubation with CatB, 24 h", "setting": "[1]; 24 h", "result": 32.5, "unit": "%"}, {"measurement": "half-life at 40 μM", "setting": "[1]; read-out: CatB t1/2 (converted)", "result": 3.3, "unit": "h"}, {"measurement": "half-life at 2 μM", "setting": "[2]; pH 7.4, Mouse plasma t1/2 (EDTA), EDTA anticoagulant", "result": "> 57.8", "unit": "h"}, {"measurement": "half-life at 2 μM", "setting": "[2]; pH 7.4, Mouse plasma t1/2 (Herparin), heparin anticoagulant", "result": 47.5, "unit": "h"}, {"measurement": "fraction unbound", "setting": "[3]", "result": 0.002}, {"measurement": "fraction unbound", "setting": "[4]", "result": 0.092}, {"measurement": "anti-tumor efficacy compared with BCY12951", "setting": "[5]; 5 μM", "result": "comparable anti-tumor efficacy"}, {"measurement": "anti-tumor activity", "setting": "[5]; 5 μM, 15 μM and 45 μM qw", "result": "dose-dependent anti-tumor activity"}, {"measurement": "Tumor volume, day 0", "setting": "[5]; 5 μM", "result": "320 ± 48", "unit": "mm^3"}, {"measurement": "Tumor volume, day 2", "setting": "[5]; 5 μM", "result": "508 ± 49", "unit": "mm^3"}, {"measurement": "Tumor volume, day 4", "setting": "[5]; 5 μM", "result": "681 ± 64", "unit": "mm^3"}, {"measurement": "Tumor volume, day 6", "setting": "[5]; 5 μM", "result": "750 ± 50", "unit": "mm^3"}, {"measurement": "Tumor volume, day 9", "setting": "[5]; 5 μM", "result": "958 ± 53", "unit": "mm^3"}, {"measurement": "T/C (%)", "setting": "[5]; 5 μM", "result": 72.6, "unit": "%"}, {"measurement": "TGI (%)", "setting": "[5]; 5 μM", "result": 33.6, "unit": "%"}, {"measurement": "Tumor volume, day 11", "setting": "[5]; 5 μM", "result": "1257 mm^3 and 1257 ± 95 mm^3"}, {"measurement": "anti-tumor efficacy compared with BCY12951 at the same molar dosage", "setting": "[5]; 15 μM and 45 μM", "result": "more potent efficacy"}, {"measurement": "Tumor volume, day 0", "setting": "[5]; 15 μM", "result": "321 ± 43", "unit": "mm^3"}, {"measurement": "Tumor volume, day 2", "setting": "[5]; 15 μM", "result": "519 ± 76", "unit": "mm^3"}, {"measurement": "Tumor volume, day 4", "setting": "[5]; 15 μM", "result": "428 ± 88", "unit": "mm^3"}, {"measurement": "Tumor volume, day 6", "setting": "[5]; 15 μM", "result": "378 ± 128", "unit": "mm^3"}, {"measurement": "Tumor volume, day 9", "setting": "[5]; 15 μM", "result": "304 ± 112", "unit": "mm^3"}, {"measurement": "T/C (%)", "setting": "[5]; 15 μM", "result": 16.6, "unit": "%"}, {"measurement": "TGI (%)", "setting": "[5]; 15 μM", "result": 102.3, "unit": "%"}, {"measurement": "Tumor volume, day 11", "setting": "[5]; 15 μM", "result": "288 mm^3 and 288 ± 126 mm^3"}, {"measurement": "tumor eradication", "setting": "[5]; 45 μM qw", "result": "eradicated the tumors completely on day 16"}, {"measurement": "Tumor volume, day 0", "setting": "[5]; 45 μM", "result": "320 ± 32", "unit": "mm^3"}, {"measurement": "Tumor volume, day 2", "setting": "[5]; 45 μM", "result": "489 ± 68", "unit": "mm^3"}, {"measurement": "Tumor volume, day 4", "setting": "[5]; 45 μM", "result": "285 ± 90", "unit": "mm^3"}, {"measurement": "Tumor volume, day 6", "setting": "[5]; 45 μM", "result": "139 ± 46", "unit": "mm^3"}, {"measurement": "Tumor volume, day 9", "setting": "[5]; 45 μM", "result": "29 ± 10", "unit": "mm^3"}, {"measurement": "T/C (%)", "setting": "[5]; 45 μM", "result": 0.9, "unit": "%"}, {"measurement": "TGI (%)", "setting": "[5]; 45 μM", "result": 121.6, "unit": "%"}, {"measurement": "Tumor volume, day 11", "setting": "[5]; 45 μM", "result": "15 mm^3 and 15 ± 6 mm^3"}, {"measurement": "tumor response after the first dosing", "setting": "[5]; [7]", "result": "sudden tumor regression"}, {"measurement": "tumor response after the second dosing", "setting": "[5]; [7]", "result": "all tumors were eradicated completely"}, {"measurement": "tumor growth (FIG. 17)", "setting": "[5]; mice from Group 5 and 6 dosed with 45 μM BCY10984", "result": "potent inhibition of tumor growth"}, {"measurement": "AUC ratio", "setting": "[6]", "result": 0.0000936}]}]}
